One substance from paper PMC10857328, “Utilization of Biopolymer-Based Lutein Emulsion as an Effective Delivery System to Improve Lutein Bioavailability in Neonatal Rats” (Nutrients, 2024) can be followed below.

The nature of this series: Acute dosing study: serum lutein kinetics, pharmacokinetic parameters and bioavailability. Format: in vivo, neonatal Sprague-Dawley rats. Conditions: 10 mg/kg body weight of lutein; for Serum lutein concentration: P10 pups. On the procedure:
To determine the bioavailability of lutein in neonatal Sprague-Dawley rats, an acute dosing study was conducted. The procedure was approved by the Institutional Animal Care and Use Committee of the University of Alabama (Number: 21-08-4864, 23 September 2021). On postnatal day 10 (P10), neonatal rats were randomly selected from litters and received a single dose of either free lutein (i.e., lutein ester dissolved in olive oil) or lutein emulsion, both containing 10 mg/kg body weight of lutein. The dose was administered to the pup’s mouth via a pipette. The concentration of lutein ester in the oil phase was 0.004 g/mL. The lutein dosage was selected based on our pilot study and previous studies. It is higher than the dosage used in human newborns but is considered acceptable and safe to be used in pharmacokinetic studies in rodent models. At 0.5 h, 1 h, 2 h, 4 h, 6 h, 12 h, and 24 h after dosing, pups (n = 3/time point/group) were euthanized, and blood, liver, spleen, brain, and eye were collected. Serum was obtained by centrifuging blood samples and tissues were stored at −80 °C until time of analysis. A group of rat pups (n = 3) not receiving treatments were used to measure the baseline lutein concentrations. Throughout the study, maternal rats consumed a purified diet with no lutein (D19120501, Research Diets Inc, New Brunswick, NJ, USA) (Table 1).
Serum and tissue lutein concentration was determined using an ultra-performance liquid chromatography (UPLC) system (Waters, Milford, MA, USA) equipped with a photo-diode array detector (PDA)/MS/MS, according to our well-established methods with slight modification. As for the serum, 100 μL of the sample was incubated with 2 mL of 100% ethanol at room temperature for an hour for lipid extraction. For the tissues, ~0.1 g of the sample was weighed, homogenized, and incubated with 2 mL of 100% ethanol at room temperature for an hour. An amount of 1 mL of 5% (w/v) potassium hydroxide was added to the sample and incubated in a water bath at 60 °C for 45 min for saponification. Upon saponification, samples were allowed to cool for about 15 min, and then an addition of 4 mL of hexane containing 0.1% butylated hydroxytoluene (w/v) and 2 mL of deionized water was added. The mixture was vortexed for 20 s and centrifuged at 1600 rpm at 25 °C for 15 min. The upper layer was collected following centrifugation and dried under nitrogen at 37 °C. The dried sample was then rinsed twice with hexane, dried, and reconstituted with 100 µL of acetonitrile-methanol. The reconstituted sample was centrifuged for 2 min to remove any possible precipitation. For UPLC analysis, 10 µL of the sample was injected into the Waters Acquity UPLC HSS T3 column. Solvent A was acetonitrile: methanol (50:50, v/v), and solvent B was 100% isopropanol. The mobile phase was made up of solvent A and solvent B in a volume ratio of 95:5 (v/v). The flow rate was set as 0.5 mL/min, and the column temperature was maintained at 35 °C. The detection wavelength was set at 446 nm. Retinyl acetate (Sigma-Aldrich, St. Louis, MO, USA) was used as the internal standard.
Bioavailability is defined as the rate and range of the active compound to the systemic circulation through a single oral administration. It can be evaluated by pharmacokinetic parameters derived from the compound kinetic curve (serum concentration vs. time). In the acute dosing study, pharmacokinetic parameters, including maximum lutein concentration (Cmax), time to reach Cmax (Tmax), and area under the time-concentration curve (AUC0–24) were determined. Cmax and Tmax were read directly from the serum lutein kinetic curve. The area under the time-concentration curve (AUC0–24) was calculated by trapezoid rule with linear interpolation using GraphPad Prism 8.0 (San Diego, CA, USA). […]

As to Lutein ester [Free Lutein], the Serum lutein concentration is, setting by setting: (0.5 h after single oral dose) 0.00 ± 0.00 nmol/L; (6 h after single oral dose) 132.91 ± 64.96 nmol/L; (24 h after single oral dose) 43.16 ± 8.53 nmol/L. The “Tmax, time to reach Cmax (serum)” value (single oral dose) was 4 h. Further, the Cmax (single oral dose, read-out: Cmax, maximum serum lutein concentration) worked out at 145 ± 49 nM. Moreover, the “AUC0–24” value (single oral dose, serum) came out at 1987 ± 247.90 nmol/L∗h.
